Measurements from patent US8778337B2, “Use of S-adenosylmethionine (SAM) and superoxide dismutase (SOD) for the preparation of medicaments for the treatment of alzheimer's disease” (Gnosis S.p.A., priority 2008, dated 2014).

B1: SOD: enzyme superoxide dismutase, obtained by fermentation from strains of Saccharomyces cerevisiae (protein, UniProt P00445 2-154, looked up)
Superoxide dismutase [Cu-Zn]: VQAVAVLKGDAGVSGVVKFEQASESEPTTVSYEIAGNSPNAERGFHIHEFGDATNGCVSAGPHFNPFKKTHGAPTDEVRHVGDMGNVKTDENGVAKGSFKDSLIKLIGPTSVVGRSVVIHAGQDDLGKGDTEESLKTGNAGPRPACGVIGLTN

Experiments:
PS1 [1] = assay: PS1 gene expression in brains of mice on a vitamin B-deprived diet (real-time PCR); assay type: in vivo; conditions: TgCRND8 mice and wild-type controls, SAM 400 μg/day, brain cDNA normalised to β-actin, FIG. 1, even lower than control diet
Method: (§1) In particular, the effect of SAM was tested at pharmacological concentrations (400 μg/day) on TgCRND8 mice and the corresponding wild-type controls.
(§2) RNA was extracted from cell cultures and homogenised brains, and cDNA was synthesised. 0.5 μg of total cDNA was used for each real-time reaction on an Opticon2 DNA Engine (MJ Research) using SYBR-Green reagents. The amplification efficiency for each pair of primers was previously determined by amplification of a standard linear curve. The experimental samples were compared with a standard curve of a specific gene to determine the quantity of specific cDNA present in the standard reaction. The standards were obtained from highly purified PCR products amplified by positive controls. The total cDNA levels were normalised to the β-actin control (gene housekeeping).

BACE [2] = assay: BACE gene expression in brains of mice on a vitamin B-deprived diet (real-time PCR); assay type: in vivo; conditions: TgCRND8 mice and wild-type controls, SAM 400 μg/day, brain cDNA normalised to β-actin, FIG. 1, even lower than control diet
Method: as §1, §2

SK-N-BE cell cultures = assay: SAM uptake in cell cultures (HPLC and tritiated SAM scintillation count); assay type: in vitro ADME, human; conditions: 100 μM SAM in F14 medium, 96 hours, HPLC; control 1
Method: For the cell cultures, 100 μM of SAM was added to the F14 cell culture medium (complete or deprived of vitamin B, according to trial design) and the cultures were stopped after 96 hours.
For the mice, 400 μg/day of SAM was administered orally by feeding probe needle, and the animals were sacrificed after 2 months; the animals were fed on a complete diet or a vitamin B-deprived diet, according to trial design. SAM levels were analysed by HPLC with a Varian HPLC system. The cells and homogenised brains were lysed in distilled water, and the macromolecules were precipitated with 1.5 M PCA. Standard SAM curves were calculated before and after the experimental samples. For the analysis of tritiated SAM, cells were treated as described above, while mice were treated for 4 days to minimise exposure to the radioactive drug. The cells and homogenised brains were lysed in distilled water. […] The uptake of radioactive SAM was measured by scintillation with a beta counter.
To establish whether the increase was due to uptake of exogenous SAM as opposed to an increase in the endogenous reserves in the presence of elevated extracellular concentrations of the molecule, a test was performed with radioactive SAM. 100 μM of tritiated SAM (SAM[3H]) was added to SK-N-BE cell cultures, and the uptake was evaluated by cell lysis and radioactivity count.

[3] = SAM uptake in mouse brain after oral administration (HPLC and tritiated SAM scintillation count); assay type: in vivo; conditions: mice, 800 μg tritiated SAM; total and cleared lysates higher
Method: For the mice, 400 μg/day of SAM was administered orally by feeding probe needle, and the animals were sacrificed after 2 months; the animals were fed on a complete diet or a vitamin B-deprived diet, according to trial design. SAM levels were analysed by HPLC with a Varian HPLC system. The cells and homogenised brains were lysed in distilled water, and the macromolecules were precipitated with 1.5 M PCA. Standard SAM curves were calculated before and after the experimental samples. For the analysis of tritiated SAM, cells were treated as described above, while mice were treated for 4 days to minimise exposure to the radioactive drug. The cells and homogenised brains were lysed in distilled water. A portion of lysed brains was sonicated and centrifuged to separate membranes and cell organelles; another portion was treated with perchloric acid (PCA) after sonication to separate the macromolecules. The uptake of radioactive SAM was measured by scintillation with a beta counter.
A portion of the total brain lysates was also sonicated and centrifuged to obtain a cleared lysate (cytoplasm), and a further portion of this cleared lysate was precipitated with perchloric acid (PCA) to eliminate the proteins (soluble lysate).

PS1 [4] = assay: Preliminary experiments: PS1 expression in SK-N-SH neuroblastoma line in vitamin B-deprived medium; assay type: cell-based; conditions: medium deprived of folate, vitamin B12 and vitamin B6, SAM at various concentrations, published
Method: (§3) Preliminary experiments have been performed on a neuroblastoma line (SK-N-SH) which expresses APP, PS1, PS2, BACE, alpha-secretase, the other components of gamma-secretase, and Notchl. The cultures were treated with a culture medium deprived of folate, vitamin B12 and vitamin B6 (in order to alter the metabolism of homocysteine), to which SAM was added at various concentrations (to balance the effects of vitamin deprivation). […] In experiments conducted with HpaII/PCR on APP and PS1 promoters, we found a major difference in the methylation of one of the CpG sites of the PS1 promoter. We concluded that the PS1 gene can be partly silenced by administration of exogenous SAM. The administration of SAM can reduce PS1 expression, restoring the metabolic balance in favour of alpha-secretase. Experiments have also been conducted with transgenic mice of the strain TgCRND8, and corresponding controls; these mice are characterised by the presence of the human mutated APP gene, and can therefore develop amyloid plaques in a short time. These animals were fed on a complete diet or a diet lacking in the vitamins of the B group; once again, as in the cells, an increase in PS1 and BACE expression was observed.

BACE [5] = assay: Preliminary experiments: BACE expression in SK-N-SH neuroblastoma line in vitamin B-deprived medium; assay type: cell-based; conditions: medium deprived of folate, vitamin B12 and vitamin B6, SAM at various concentrations, published
Method: as §3

PS1 [6] = assay: PS1 gene expression in vitamin-deprived SK-N-BE neuroblastoma cells (real-time PCR); assay type: cell-based, human; conditions: FIG. 2, SOD and GSH to a lesser extent than SAM
Method: as §2
(§4) As homocysteine metabolism is involved in both methylation and oxidoreduction reactions, we tested the effect of various antioxidants on the expression of the two genes.

BACE [7] = assay: BACE gene expression in vitamin-deprived SK-N-BE neuroblastoma cells (real-time PCR); assay type: cell-based, human; conditions: FIG. 2, SOD and GSH to a lesser extent than SAM
Method: as §2, §4

Molecule | overexpression of PS1 induced by a deprived diet in vivo (PS1 [1]) | overexpression of BACE induced by a deprived diet in vivo (BACE [2]) | intracellular levels of SAM (SK-N-BE cell cultures) [µM] | radioactivity level of soluble brain lysate (PCA-precipitated cleared lysate), as SAM [3] [ng] | PS1 expression after the administration of SAM (PS1 [4]) | BACE expression after the administration of SAM (BACE [5]) | overexpression of PS1 induced by vitamin deprivation (PS1 [6]) | overexpression of BACE induced by vitamin deprivation (BACE [7])
C[S+](CC[C@H](N)C(=O)O)C[C@H]1O[C@@H](n2cnc3c(N)ncnc32)[C@H](O)[C@@H]1O (some centres unmarked) [SAM, S-adenosylmethionine] | reverses the overexpression | reverses the overexpression | 2.5 to 3 | ~0.5 | marked reduction | marked reduction |  | 
B1 |  |  |  |  |  |  | inhibit overexpression | inhibit overexpression
